# From ChEMBL document CHEMBL4052588, “Design of a Biased Potent Small Molecule Inhibitor of the Bromodomain and PHD Finger-Containing (BRPF) Proteins Suitable for Cellular and in Vivo Studies” (J Med Chem, 2017)
# Tests used:
# CREB-binding protein = CREB-binding protein (Homo sapiens, UniProt Q92793); assay: Inhibition of human CREBBP expressed in Escherichia coli BL21 after 1 hr by BROMOscan assay
# NCI-H1437 = assay: Growth inhibition of human NCI-H1437 cells after 72 hrs; type: functional; settings: NCI-H1437, 72 h
# Hs 766 = assay: Growth inhibition of human Hs766T cells after 72 hrs; type: functional; settings: Hs 766, 72 h
# OCI-LY19 = assay: Growth inhibition of human OCI-LY19 cells after 72 hrs; type: functional; settings: OCI-LY19, 72 h
# [1] = Growth inhibition of human OCUM1 cells after 72 hrs; type: functional; settings: OCUM1, 72 h
# [2] = Intrinsic clearance in mouse liver microsomes; type: ADME, microsome; settings: read-out: CLH
# NUGC-4 = assay: Growth inhibition of human NUGC4 cells after 72 hrs; type: functional; settings: NUGC-4, 72 h
# LoVo = assay: Growth inhibition of human LoVo cells after 72 hrs; type: functional
# OCI-AML2 = assay: Growth inhibition of human OCI-AML2 cells after 72 hrs; type: functional; settings: OCI-AML2, 72 h
# [3] = Growth inhibition of human C99 cells after 72 hrs; type: functional; settings: C99, 72 h
# AGS = assay: Growth inhibition of human AGS cells after 72 hrs; type: functional
# LS180 = assay: Growth inhibition of human LS180 cells after 72 hrs; type: functional; settings: LS180, 72 h
# [4] = Fraction unbound in mouse plasma; type: ADME, cell-free
# [5] = target: T1, Bromodomain-containing protein 1 (Homo sapiens, UniProt O95696); assay: Binding affinity to human BRPF2 by isothermal titration calorimetry
# T1 sequence (O95696 whole entry): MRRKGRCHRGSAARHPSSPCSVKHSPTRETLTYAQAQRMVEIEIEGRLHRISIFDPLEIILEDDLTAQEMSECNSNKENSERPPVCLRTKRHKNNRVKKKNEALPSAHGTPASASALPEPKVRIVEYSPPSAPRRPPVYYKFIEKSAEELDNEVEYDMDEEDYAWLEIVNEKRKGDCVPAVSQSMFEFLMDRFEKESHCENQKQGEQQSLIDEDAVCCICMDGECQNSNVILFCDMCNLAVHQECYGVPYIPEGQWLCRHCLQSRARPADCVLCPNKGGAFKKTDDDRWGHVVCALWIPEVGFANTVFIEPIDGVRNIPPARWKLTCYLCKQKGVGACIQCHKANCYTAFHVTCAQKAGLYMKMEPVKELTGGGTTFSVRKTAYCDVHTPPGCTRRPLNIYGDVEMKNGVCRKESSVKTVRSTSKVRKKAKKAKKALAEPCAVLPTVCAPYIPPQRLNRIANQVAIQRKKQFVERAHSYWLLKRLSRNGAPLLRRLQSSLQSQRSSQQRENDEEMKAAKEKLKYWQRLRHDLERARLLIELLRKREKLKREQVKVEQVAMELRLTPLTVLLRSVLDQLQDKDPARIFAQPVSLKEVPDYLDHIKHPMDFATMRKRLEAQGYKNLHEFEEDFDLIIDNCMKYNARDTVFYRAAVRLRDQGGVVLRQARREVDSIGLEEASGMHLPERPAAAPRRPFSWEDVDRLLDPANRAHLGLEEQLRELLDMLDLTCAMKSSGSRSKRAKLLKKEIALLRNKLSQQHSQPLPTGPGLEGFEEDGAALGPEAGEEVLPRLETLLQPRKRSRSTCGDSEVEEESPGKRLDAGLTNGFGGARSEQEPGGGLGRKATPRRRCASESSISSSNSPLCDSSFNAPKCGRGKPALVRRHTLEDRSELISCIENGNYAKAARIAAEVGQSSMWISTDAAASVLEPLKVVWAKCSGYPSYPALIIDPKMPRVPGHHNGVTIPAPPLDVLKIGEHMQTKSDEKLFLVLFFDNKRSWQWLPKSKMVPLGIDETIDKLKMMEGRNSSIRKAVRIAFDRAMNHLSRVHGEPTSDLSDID
# SNU-5 = assay: Growth inhibition of human SNU5 cells after 72 hrs; type: functional; settings: SNU-5, 72 h
# IM-9 = assay: Growth inhibition of human IM9 cells after 72 hrs; type: functional; settings: IM-9, 72 h
# CWR22R = assay: Growth inhibition of human 22Rv1 cells after 72 hrs; type: functional; settings: 22Rv1, 72 h
# [6] = target: T2, Bromodomain and PHD finger-containing protein 3 (Homo sapiens, UniProt Q9ULD4); assay: Binding affinity to human BRPF3 by isothermal titration calorimetry
# T2 sequence (Q9ULD4 whole entry): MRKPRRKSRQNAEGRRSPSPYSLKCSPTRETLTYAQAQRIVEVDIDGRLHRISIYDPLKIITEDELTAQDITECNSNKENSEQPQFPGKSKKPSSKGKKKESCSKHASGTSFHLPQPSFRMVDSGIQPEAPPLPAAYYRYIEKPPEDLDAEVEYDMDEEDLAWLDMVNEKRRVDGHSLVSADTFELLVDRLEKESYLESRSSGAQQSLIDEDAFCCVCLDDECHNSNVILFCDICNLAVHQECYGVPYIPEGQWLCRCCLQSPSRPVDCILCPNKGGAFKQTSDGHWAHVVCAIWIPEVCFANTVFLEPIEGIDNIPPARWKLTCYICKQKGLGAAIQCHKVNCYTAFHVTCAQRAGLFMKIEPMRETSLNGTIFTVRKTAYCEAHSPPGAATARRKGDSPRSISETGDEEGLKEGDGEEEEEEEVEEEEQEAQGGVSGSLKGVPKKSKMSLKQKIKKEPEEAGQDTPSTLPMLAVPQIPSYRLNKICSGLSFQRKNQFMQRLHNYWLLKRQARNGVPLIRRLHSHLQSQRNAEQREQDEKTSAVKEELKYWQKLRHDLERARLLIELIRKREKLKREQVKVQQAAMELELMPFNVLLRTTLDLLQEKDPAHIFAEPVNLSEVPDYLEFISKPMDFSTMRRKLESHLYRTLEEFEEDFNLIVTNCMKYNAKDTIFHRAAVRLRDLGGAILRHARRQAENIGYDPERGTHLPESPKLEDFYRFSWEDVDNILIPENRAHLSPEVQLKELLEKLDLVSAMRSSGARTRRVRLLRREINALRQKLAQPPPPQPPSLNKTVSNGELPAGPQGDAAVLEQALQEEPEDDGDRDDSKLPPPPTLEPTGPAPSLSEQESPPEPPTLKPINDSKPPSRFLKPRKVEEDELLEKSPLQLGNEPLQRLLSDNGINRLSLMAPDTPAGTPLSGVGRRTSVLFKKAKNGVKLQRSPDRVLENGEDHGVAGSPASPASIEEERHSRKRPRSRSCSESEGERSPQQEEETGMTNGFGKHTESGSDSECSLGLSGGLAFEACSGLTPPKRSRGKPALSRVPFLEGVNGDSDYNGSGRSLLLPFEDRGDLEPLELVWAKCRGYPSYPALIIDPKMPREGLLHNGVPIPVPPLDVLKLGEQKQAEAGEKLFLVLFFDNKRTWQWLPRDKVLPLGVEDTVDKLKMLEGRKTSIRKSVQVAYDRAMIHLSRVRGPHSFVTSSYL
# HCC1187 = assay: Growth inhibition of human HCC1187 cells after 72 hrs; type: functional; settings: HCC1187, 72 h
# Sequence of CREB-binding protein (Q92793 whole entry): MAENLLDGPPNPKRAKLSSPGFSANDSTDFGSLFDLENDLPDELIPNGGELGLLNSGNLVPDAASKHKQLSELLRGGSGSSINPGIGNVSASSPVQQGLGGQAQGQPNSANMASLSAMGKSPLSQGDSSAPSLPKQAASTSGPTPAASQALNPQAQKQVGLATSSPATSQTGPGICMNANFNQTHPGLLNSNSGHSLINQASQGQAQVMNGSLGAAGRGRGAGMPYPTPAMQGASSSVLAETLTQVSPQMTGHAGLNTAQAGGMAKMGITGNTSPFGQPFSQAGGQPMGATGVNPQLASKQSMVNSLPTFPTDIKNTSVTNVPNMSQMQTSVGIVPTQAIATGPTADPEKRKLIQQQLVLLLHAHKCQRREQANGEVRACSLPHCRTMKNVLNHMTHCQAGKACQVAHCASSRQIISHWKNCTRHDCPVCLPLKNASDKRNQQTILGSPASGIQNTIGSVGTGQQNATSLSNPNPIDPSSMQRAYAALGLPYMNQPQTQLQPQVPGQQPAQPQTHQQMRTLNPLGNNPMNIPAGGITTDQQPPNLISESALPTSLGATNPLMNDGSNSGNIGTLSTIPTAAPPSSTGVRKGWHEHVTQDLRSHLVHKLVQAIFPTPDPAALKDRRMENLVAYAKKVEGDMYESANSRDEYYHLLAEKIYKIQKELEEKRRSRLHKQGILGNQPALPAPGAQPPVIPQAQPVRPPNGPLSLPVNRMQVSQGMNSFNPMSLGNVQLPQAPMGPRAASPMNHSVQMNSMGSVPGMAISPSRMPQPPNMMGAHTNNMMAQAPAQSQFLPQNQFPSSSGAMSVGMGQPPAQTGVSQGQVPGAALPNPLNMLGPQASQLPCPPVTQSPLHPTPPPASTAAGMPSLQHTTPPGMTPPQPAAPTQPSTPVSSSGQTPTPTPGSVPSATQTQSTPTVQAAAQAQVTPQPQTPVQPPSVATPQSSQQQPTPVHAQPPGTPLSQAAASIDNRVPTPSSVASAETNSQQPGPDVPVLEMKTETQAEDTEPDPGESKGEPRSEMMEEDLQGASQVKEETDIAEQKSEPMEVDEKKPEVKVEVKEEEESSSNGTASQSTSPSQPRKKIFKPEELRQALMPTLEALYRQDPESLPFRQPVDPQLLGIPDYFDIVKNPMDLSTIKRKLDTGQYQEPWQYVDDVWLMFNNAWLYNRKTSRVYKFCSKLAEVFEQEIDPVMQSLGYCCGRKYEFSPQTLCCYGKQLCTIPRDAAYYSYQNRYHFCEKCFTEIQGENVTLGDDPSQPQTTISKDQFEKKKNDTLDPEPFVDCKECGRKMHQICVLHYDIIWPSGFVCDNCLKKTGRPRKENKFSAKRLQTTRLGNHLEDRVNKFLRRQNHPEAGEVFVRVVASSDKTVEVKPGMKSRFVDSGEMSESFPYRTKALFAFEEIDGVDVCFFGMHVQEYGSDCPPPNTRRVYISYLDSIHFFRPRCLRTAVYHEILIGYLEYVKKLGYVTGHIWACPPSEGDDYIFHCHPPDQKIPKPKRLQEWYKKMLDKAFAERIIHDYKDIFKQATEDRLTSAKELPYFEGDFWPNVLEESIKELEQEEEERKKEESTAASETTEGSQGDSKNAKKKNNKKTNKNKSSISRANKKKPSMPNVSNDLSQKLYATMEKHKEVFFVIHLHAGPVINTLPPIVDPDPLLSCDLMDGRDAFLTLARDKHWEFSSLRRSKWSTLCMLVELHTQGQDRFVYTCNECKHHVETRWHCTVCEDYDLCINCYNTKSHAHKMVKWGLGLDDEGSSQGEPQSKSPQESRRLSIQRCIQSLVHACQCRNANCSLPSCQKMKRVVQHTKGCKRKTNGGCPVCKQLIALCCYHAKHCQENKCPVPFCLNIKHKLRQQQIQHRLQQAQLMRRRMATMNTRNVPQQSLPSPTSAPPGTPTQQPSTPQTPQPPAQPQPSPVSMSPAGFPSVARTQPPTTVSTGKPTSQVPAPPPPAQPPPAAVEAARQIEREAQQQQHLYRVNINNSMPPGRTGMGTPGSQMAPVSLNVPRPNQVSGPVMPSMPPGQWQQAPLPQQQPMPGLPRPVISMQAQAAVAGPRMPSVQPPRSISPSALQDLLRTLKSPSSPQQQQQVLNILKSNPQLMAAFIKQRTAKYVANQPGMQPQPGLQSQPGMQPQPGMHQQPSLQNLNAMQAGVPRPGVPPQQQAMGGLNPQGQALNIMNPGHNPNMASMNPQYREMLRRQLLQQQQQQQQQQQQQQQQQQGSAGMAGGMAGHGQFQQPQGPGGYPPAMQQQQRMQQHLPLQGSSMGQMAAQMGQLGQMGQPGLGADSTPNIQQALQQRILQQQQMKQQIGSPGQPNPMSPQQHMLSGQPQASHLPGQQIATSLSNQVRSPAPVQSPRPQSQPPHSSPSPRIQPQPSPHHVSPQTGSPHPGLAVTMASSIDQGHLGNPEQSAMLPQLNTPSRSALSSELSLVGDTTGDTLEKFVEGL
IC50 (CREB-binding protein) [nM],GI50 (NCI-H1437) [nM],GI50 (OCI-LY19) [nM],microsomal CLint [2] [µL/min/mg],GI50 (LoVo) [nM],GI50 (OCI-AML2) [nM],GI50 (AGS) [nM],fraction unbound [4],Kd [5] [nM],GI50 (SNU-5) [nM],Kd [6] [nM],GI50 (HCC1187) [nM],SMILES,GI50 (Hs 766) [nM],GI50 [1] [nM],GI50 (NUGC-4) [nM],GI50 [3] [nM],GI50 (LS180) [nM],GI50 (IM-9) [nM],GI50 (CWR22R) [nM]
> 100000,,,,,,,,,,,,CCc1cc2cc(NS(=O)(=O)c3ccc(C#N)cc3)ccc2n(CC)c1=O,,,,,,,
,1000 to 10000,1000 to 10000,14,1000 to 10000,1300,1000 to 10000,0.03,210,1000 to 10000,940,1000 to 10000,Cc1cc2cc(NS(=O)(=O)c3ccc(C#N)cc3)ccc2n(C)c1=O,1000 to 10000,1000 to 10000,1000 to 10000,1000 to 10000,1000 to 10000,1000 to 10000,1000 to 10000
